As usually defined, the GI50 is the concentration giving 50% growth inhibition.

The source of these data is ChEMBL document CHEMBL1201862, “PubChem BioAssay data set” (2004).

Counter-ions that a name gives are not always drawn.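 Tested at 5 concentrations; 48 h exposure; 96-well plates; endpoints linearly interpolated, else capped at highest concentration. Abbreviation: GI50, concentration required for 50% inhibition of growth.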 Activity calls are given as the source filed them. No stated cut-off is given here; in the data, active = GI50 up to about 1.1 µM and inactive = higher.

What all share (test): DTP human tumour cell line panel, 48 h
The test system of assay [1] is A549.
Assay [2] relates to HCT-15.
Assay [3] concerns DU-145.
Assay [4] deals with HL-60.
In assay [5] the test system is NCI-H23.
The test system of assay [6] is HCC 2998.
Assay [7] relates to KM12.
Assay [8] relates to OVCAR-8.
Assay [9] has as its system MDA-MB-435.
Assay [10] concerns SF-539.
In assay [11] the test system is T47D.
Assay [12] relates to MCF7.
Assay [13] has as its system SN12C.
Assay [14] has as its system MDA-N.
In assay [15] the test system is K562.
For assay [16], the system named is SR.
Assay [17] relates to MOLT-4.
In assay [18] the test system is COLO 205.
For assay [19], the system named is TK-10.
Assay [20] deals with DMS-114.

In the case of `COc1ccc(C(=O)Cn2c(C(C)=O)nc3ccccc32)cc1`, the GI50 was 5.31 µM (inactive) in [1]; 6.35 µM in assay [2]; 30.7 µM (inactive) in [3]; 3.41 µM (inactive) in [4]; 13.2 µM (inactive) in [5]; 29.9 µM (inactive) in assay [6]. Further, the GI50 was 7.1 µM (inactive) in [7]; 3.8 µM (inactive) in [8]; 13.5 µM (inactive) in assay [9]; > 53.5 µM (inactive) in assay [10]; 5.28 µM (inactive) in [11]; 4.58 µM (inactive) in assay [12]. The GI50 was 16.4 µM (inactive) in assay [13]; 10.7 µM (inactive) in assay [14]; 4.4 µM (inactive) in assay [15]; 4.92 µM (inactive) in assay [16]; 4.98 µM (inactive) in assay [17]; 18.3 µM (inactive) in [18]. In assay [19], the GI50 was > 76.6 µM (inactive).
Consider `C=CCc1cc(OC)c2c(c1)C(OC)CC(c1ccc(OC)c(OC)c1)O2` (stereo not given), for which the GI50 in [1] was > 100 µM (inactive); in assay [2] it was 61.5 µM; in [4], 75 µM (inactive); in assay [6] it was > 100 µM (inactive); in assay [7] it was > 100 µM (inactive); in [8], > 100 µM (inactive). Further, the GI50 in assay [10] is > 100 µM (inactive); in assay [20], 67.5 µM (inactive); in [13], > 100 µM (inactive); in assay [15], 61.8 µM (inactive); in [17] it was 45.5 µM (inactive); in assay [18] it was > 100 µM (inactive). For the same compound, the GI50 in assay [19] is > 100 µM (inactive).
With `c1ccc(N/N=N/c2ccc(-c3nc4ccccc4o3)cc2)nc1`, the GI50 was 46.7 µM (inactive) in [1]; 33.7 µM in [2]; 43.6 µM (inactive) in [3]; 13.7 µM (inactive) in assay [4]; 34 µM (inactive) in assay [5]; 20 µM (inactive) in assay [6]. Also, the GI50 in assay [7] was 37.8 µM (inactive); in [8], 35.8 µM (inactive); in assay [9], 31 µM (inactive); in [10], 55.3 µM (inactive); in assay [11], 25.2 µM (inactive); in [12], 35.6 µM (inactive). The GI50 is 56.6 µM (inactive) in assay [13]; 68.7 µM (inactive) in assay [14]; 42.9 µM (inactive) in assay [15]; 38.5 µM (inactive) in [16]; 21.6 µM (inactive) in [17]; 20.6 µM (inactive) in assay [18]. For the same compound, the GI50 in [19] is 37.4 µM (inactive).
Take `C[C@H](CCC(=O)O[C@@H]1CC[C@@]2(C)C(CC[C@H]3[C@@H]4CC[C@H]([C@H](C)CCc5nc6ccccc6[nH]5)[C@@]4(C)CC[C@@H]32)C1)[C@H]1CC[C@H]2[C@@H]3CCC4C[C@H](O)CC[C@]4(C)[C@H]3CC[C@]12C` (stereo not given in full): the GI50 in [1] was > 100 µM (inactive); in [2], above 80.2 µM; in [3] it was > 100 µM (inactive); in assay [4] it was > 100 µM (inactive); in assay [5], 4.53 µM (inactive); in assay [6], 2.54 µM (inactive). For the same compound, the GI50 in assay [7] was > 100 µM (inactive); in assay [8], 20.2 µM (inactive); in assay [9] it was > 100 µM (inactive); in assay [10] it was > 100 µM (inactive); in [11], 5.04 µM (inactive); in [12] it was 6.34 µM (inactive). The GI50 in [13], in assay [14], in [15], in assay [16], in assay [17] and in assay [18] was > 100 µM (inactive) in each case. The GI50 in assay [19] was > 100 µM (inactive).
`N#Cc1[nH]c(=O)n(-c2ccc(Cl)cc2)c1N`: the GI50 was > 10 µM (inactive) in [1]; above 10 µM in assay [2]; > 10 µM (inactive) in assay [3]; > 10 µM (inactive) in assay [4]; > 10 µM (inactive) in [5]; > 10 µM (inactive) in assay [6]. Besides, the GI50 in assay [7], in [8], in assay [9], in assay [10], in assay [11] and in [12] was > 10 µM (inactive) each time. The GI50 in [13], in [14], in assay [15], in assay [16], in assay [17] and in [18] was > 10 µM (inactive) in each case. In addition, the GI50 in assay [19] was > 10 µM (inactive).
As for `C=CCOC(=O)C1CCC(=O)N1C(=O)C(Cl)Cl` (stereo not given), the GI50 in assay [1] is > 100 µM (inactive); in assay [2] it was above 100 µM; in assay [4], > 100 µM (inactive); in assay [5] it was > 100 µM (inactive); in [6], > 100 µM (inactive); in assay [7], > 100 µM (inactive). For the same compound, the GI50 in [8], in assay [20], in assay [13], in assay [15], in assay [17] and in [18] was > 100 µM (inactive) each time. In addition, the GI50 in assay [19] was > 100 µM (inactive).
Regarding `Cc1cc(C)nc(NS(=O)(=O)c2ccc(NNc3c4ccccc4nc4c(C(=O)Nc5ccc(S(=O)(=O)Nc6ncccn6)cc5)cccc34)cc2)n1`, the GI50 in [1] was 38.7 µM (inactive); in assay [2], 32.7 µM; in assay [3], 31.8 µM (inactive); in [4], 25.7 µM (inactive); in [5] it was 23 µM (inactive); in assay [6] it was 26.7 µM (inactive). Further, the GI50 in assay [7] is 34.5 µM (inactive); in [8], 26.2 µM (inactive); in [9], 21.5 µM (inactive); in assay [10] it was 27 µM (inactive); in [11], 26.1 µM (inactive); in [12], 52.8 µM (inactive). Moreover, the GI50 in assay [13] is 20.4 µM (inactive); in assay [14] it was 31.1 µM (inactive); in assay [15] it was 28.6 µM (inactive); in [16] it was 8.41 µM (inactive); in assay [17], 32.5 µM (inactive); in [18] it was 27.1 µM (inactive). Further, in assay [19], the GI50 is 50.9 µM (inactive).
`NN/C(Cc1ccccc1)=N\NO`: the GI50 is > 100 µM (inactive) in [1]; 26.8 µM in assay [2]; > 100 µM (inactive) in assay [4]; 57.4 µM (inactive) in [5]; > 100 µM (inactive) in assay [6]; 17.4 µM (inactive) in assay [7]. In addition, the GI50 in [10] is > 100 µM (inactive); in assay [20], 25.5 µM (inactive); in assay [15], 85.7 µM (inactive); in [17], > 100 µM (inactive); in assay [18], > 100 µM (inactive); in [19], > 100 µM (inactive).
Regarding `CC(C)C(NCc1c(O)ccc2c(-c3ccccc3)cc(=O)oc12)C(=O)O` (stereo not given), the GI50 is > 100 µM (inactive) in [1]; above 100 µM in assay [2]; > 100 µM (inactive) in assay [3]; > 100 µM (inactive) in assay [4]; > 100 µM (inactive) in [5]; > 100 µM (inactive) in assay [6]. The GI50 in assay [7], in assay [8], in [9], in assay [10], in [11] and in assay [12] was > 100 µM (inactive) each time. For the same compound, the GI50 in [13], in [14], in assay [15], in [16], in assay [17] and in assay [18] was > 100 µM (inactive) throughout. Moreover, the GI50 in assay [19] was > 100 µM (inactive).
For the compound `O=C1c2cccc3cccc(c23)C(=O)N1CCCNCCCCNCCCNCCCN1C(=O)c2cccc3cccc(c23)C1=O` [BISNAPHTHALIMIDOPROPYL SPERMIDINE TRIHYDROBROMIDE], the GI50 in [1] was 0.301 µM (active); in assay [2], 11.7 µM; in [3], 0.371 µM (active); in assay [4], 0.172 µM (active); in [5] it was 0.35 µM (active); in [6], 0.586 µM (active). Further, the GI50 in assay [7] was 0.556 µM (active); in assay [8], 0.748 µM (active); in [9], 0.74 µM (active); in [10], 0.585 µM (active); in assay [11] it was 1.12 µM (inactive); in assay [12] it was 0.0343 µM (active). Besides, the GI50 is 0.521 µM (active) in assay [13]; 0.792 µM (active) in [14]; 0.557 µM (active) in assay [15]; 0.0787 µM (active) in assay [16]; 0.0333 µM (active) in [17]; 0.348 µM (active) in assay [18]. Moreover, the GI50 in [19] was 2.55 µM (inactive).
`Cc1cc(N)c2ccccc2[n+]1CCCCCCCCCC[n+]1c(C)cc(N)c2ccccc21` [DEQUALINIUM CHLORIDE]: the GI50 in assay [1] is 0.887 µM (active); in assay [2] it was 4.31 µM; in assay [3] it was 2.74 µM (inactive); in [4], 0.533 µM (active); in assay [5], 0.41 µM (active); in assay [6], 0.904 µM (active). The concentration for 50% growth inhibition (GI50) is 0.69 µM (active) in [7]; 1.9 µM (inactive) in assay [8]; 0.541 µM (active) in assay [9]; 1.83 µM (inactive) in assay [10]; 0.948 µM (active) in assay [11]; 0.423 µM (active) in assay [12]. The GI50 in assay [13] is 1.45 µM (inactive); in [14], 1.33 µM (inactive); in assay [15] it was 0.379 µM (active); in assay [16] it was 0.472 µM (active); in assay [17], 0.964 µM (active); in assay [18], 1.33 µM (inactive). In addition, the GI50 in assay [19] was 4.09 µM (inactive).
